Measured values published in patent publication US7928225B2, “Oxabispidine compounds for the treatment of cardiac arrhythmias” (AstraZeneca AB, priority 2005, dated 2011).

Experiments:
[1] = system: anaesthetised guinea pigs; experiment: Test A: Primary electrophysiological effects in anaesthetised guinea pigs (MAP duration); format: in vivo, guinea pig; settings: infusion into jugular vein, MAP duration at 75 percent repolarization during pacing, from mean dose-response curve
Method: Primary Electrophysiological Effects in Anaesthetised Guinea Pigs
Guinea pigs weighing between 500 and 1000 g were used. The animals were housed for at least one week before the experiment and had free access to food and tap water during that period.
Anaesthesia was induced by an intraperitoneal injection of pentobarbital (50 to 60 mg/kg) and catheters were introduced into one carotid artery (for blood pressure recording and blood sampling) and into one jugular vein (for drug infusions). Needle electrodes were placed on the limbs for recording of ECGs (lead II). […]
The left ventricular epicardium was exposed by a left-sided thoracotomy, and a custom-designed suction electrode for recording of the monophasic action potential (MAP) was applied to the left ventricular free wall. The electrode was kept in position as long as an acceptable signal could be recorded, otherwise it was moved to a new position. […]
Of the numerous variables measured in this analysis, three were selected as the most important for comparison and selection of active compounds. […] Systolic and diastolic blood pressure were measured in order to judge the haemodynamic status of the anaesthetised animal. […]
The mean of the two control recordings was set to zero and the effects recorded after consecutive doses of test substance were expressed as percentage changes from this value. […]

[2] = target: T1, HERG channel (Homo sapiens, UniProt Q12809); experiment: Test B: Rb+-efflux assay for detection of HERG channel blockers; format: cell-based; settings: depolarisation-induced Rb+-efflux from Chinese hamster ovary cells stably expressing the HERG-channel
T1 construct: expressed in transfected cells
Method: Rb^+-Efflux Assay for Detection of HERG Channel Blockers
The human ether-a-go-go related gene (HERG) encodes the voltage-gated K^+ channel underlying the cardiac rapid delayed rectifier current IKr. The IC50 value for HERG channel blockade was determined using a high throughput functional assay based on depolarisation-induced Rb^+-efflux from Chinese hamster ovary cells stably expressing the HERG-channel.
Cells were grown in Ham F12 (Life Technologies 31765-027) supplemented with 10% FBS and 0.6 mg/mL hygromycin B and were routinely passaged twice-weekly. For experimental studies, cells were plated at a density of 15,000 cells/well in Falcon, 384-well tissue culture-treated black-walled clear-bottomed plates and were thereafter incubated overnight at 37° C. in a cell culture incubator.
Following incubating overnight, cell plates were washed and a Rb^+-Load buffer (a physiological buffer containing Rb^+) was added. Cell plates were then incubated for 3 hours and were thereafter washed. Following this wash, the test compounds were added. The cell plates were then incubated for another 10 minutes and, following this incubation period, external K^+ concentration was increased in order to depolarize the cells and activate HERG channels. […]
Compound activity was expressed as: […]

T1 sequence (Q12809 whole entry): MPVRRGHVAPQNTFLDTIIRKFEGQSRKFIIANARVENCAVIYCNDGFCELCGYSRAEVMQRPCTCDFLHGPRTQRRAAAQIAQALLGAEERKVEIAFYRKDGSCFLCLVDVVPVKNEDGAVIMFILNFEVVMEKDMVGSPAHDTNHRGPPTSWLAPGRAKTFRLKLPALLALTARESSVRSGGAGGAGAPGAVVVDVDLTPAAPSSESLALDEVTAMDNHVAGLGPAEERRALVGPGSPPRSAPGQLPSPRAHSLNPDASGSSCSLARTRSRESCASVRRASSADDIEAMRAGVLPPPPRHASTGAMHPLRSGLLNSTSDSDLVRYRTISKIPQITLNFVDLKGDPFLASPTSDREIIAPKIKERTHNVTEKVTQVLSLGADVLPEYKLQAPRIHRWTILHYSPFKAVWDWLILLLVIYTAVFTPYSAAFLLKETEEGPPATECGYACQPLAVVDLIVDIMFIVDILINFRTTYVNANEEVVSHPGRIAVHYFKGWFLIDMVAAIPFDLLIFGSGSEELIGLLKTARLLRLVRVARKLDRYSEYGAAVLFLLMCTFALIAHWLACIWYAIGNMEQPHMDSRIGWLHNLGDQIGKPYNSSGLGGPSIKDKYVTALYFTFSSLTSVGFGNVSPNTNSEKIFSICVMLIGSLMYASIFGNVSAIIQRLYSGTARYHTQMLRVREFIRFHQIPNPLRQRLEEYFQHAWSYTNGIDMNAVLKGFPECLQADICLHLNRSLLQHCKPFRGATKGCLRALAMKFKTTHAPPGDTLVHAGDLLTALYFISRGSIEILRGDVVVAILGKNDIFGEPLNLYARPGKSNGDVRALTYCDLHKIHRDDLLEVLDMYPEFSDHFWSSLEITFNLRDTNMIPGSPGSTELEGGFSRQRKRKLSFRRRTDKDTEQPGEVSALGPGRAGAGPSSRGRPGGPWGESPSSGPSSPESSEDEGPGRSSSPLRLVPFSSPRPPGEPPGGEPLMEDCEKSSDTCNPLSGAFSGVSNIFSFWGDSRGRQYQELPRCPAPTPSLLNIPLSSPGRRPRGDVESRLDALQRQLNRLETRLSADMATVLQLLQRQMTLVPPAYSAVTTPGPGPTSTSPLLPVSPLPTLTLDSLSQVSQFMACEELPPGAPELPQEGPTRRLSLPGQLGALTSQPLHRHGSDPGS

Structure (SMILES)	D10 (cumulative dose prolonging the MAP duration by 10% from the baseline; index of class III electrophysiological potency) [1]	pIC50 for HERG channel blockade [2]
CC(C)(C)OC(=O)NCCN1CC2CN(CCOc3ccc(C#N)cc3F)CC(C1)O2 [Example 2, tert-Butyl (2-{7-[2-(4-cyano-2-fluorophenoxy)ethyl]-9-oxa-3,7-diazabicyclo-[3.3.1]non-3-yl}ethyl)carbaamate]	6.3	5.0
CC(C)(C)OC(=O)NCCCN1CC2CN(CCCOc3ccc(C#N)cc3)CC(C1)O2 [Example 5]	6.8	6.19
